Target: T1, IRAK4 (Homo sapiens, UniProt Q9NWZ3)
T1 construct: endogenous in cells; host or cells: THP-1 cells
T1 sequence (Q9NWZ3 1-460): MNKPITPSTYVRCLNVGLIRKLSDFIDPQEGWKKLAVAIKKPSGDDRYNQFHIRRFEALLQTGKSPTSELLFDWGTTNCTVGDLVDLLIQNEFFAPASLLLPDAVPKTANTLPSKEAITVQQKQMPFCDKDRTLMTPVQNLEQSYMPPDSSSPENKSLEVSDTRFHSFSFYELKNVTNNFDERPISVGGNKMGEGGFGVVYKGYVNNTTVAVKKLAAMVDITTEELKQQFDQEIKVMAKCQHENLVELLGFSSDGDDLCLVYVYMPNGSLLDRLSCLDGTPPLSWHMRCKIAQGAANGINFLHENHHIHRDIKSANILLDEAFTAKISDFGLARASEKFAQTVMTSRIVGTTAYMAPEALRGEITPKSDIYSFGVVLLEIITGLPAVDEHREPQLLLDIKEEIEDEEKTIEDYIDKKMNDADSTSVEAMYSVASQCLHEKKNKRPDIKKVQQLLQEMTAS
Assay: LVL THP1 HTRF (THP1 Homogeneous Time Resolved Fluorescence)
Type: cell-based
Conditions: THP1 cells, 18 h incubation with compound; for DC50: read-out: LVL THP1 HTRF EC50
Method: Cell culture media was prepared in a tissue culture hood in a sterile environment by adding 10% FBS and 1% Penicillin Streptomycin to 500 mL no phenol red RPMI 1640 media. The media was filtered through a Nalgene Bottle Top Filter and stored at 4° C.
For Homogenous Time Resolved Fluorescence (HTRF) assays, a Cisbio HTRF kit was used, which included: Lysis Buffer #1 4×, Blocking Reagent #3 100×, 20× Antibody 1 (Anti-IRAK4 d2), 20× Antibody 2 (Anti-IRAK4 k), and Detection Buffer.
The THP1 plates were prepared by the following method. For each dosing plate, a duplicate for CTG assay was prepared. Two THP-1 T-175 flasks could be used to plate one 384 well plate. The cells were collected from two T-175 flasks into 200 mL centrifuge tubes and spun down at 1200 rpm for 10 min. The supernatant was removed completely and cells were resuspended in 7.5 mL cell culture media. To 5 μL of the cell suspension was added 25 μL of media and 30 μL of Trypan Blue stain. The cells were counted using countess (automated cell counter, Thermo Fisher Scientific) twice and the viability and live cell count was recorded. The actual cell count was […] the live cell count. Based on the count, a cell suspension was prepared in colorless RPMI media for a final concentration of 7.5e6 cells/mL. Using Standard cassette multidrop combi, 20 μL of the 7.5e6 cells/mL cell stock was added to entire 384 well plate but for top half of column 1 (negative control) The multidrop combi was always primed to achieve a steady flow and washed after use with 20 mL de-ionized water followed by 20 mL alcohol. The cells were incubated in 5% CO2 incubator at 37° C.
Dosing was conducted using the following method. To dose assay plates and CTG plate was added 20 nL of compounds in DMSO using Echo (Beckman Coulter), and the plates were incubated at 37° C. for 18 h. The compound plates were spun at 1200 rpm for 1 min before dosing. The compound plate was sealed and properly stored during incubation.
After dosing, an HTRF assay was conducted using the following method. The treatment plates (IRAK4_HTRF) were centrifuged at 600 g for 10 min. Using CyBio Felix, Automated liquid handler (Analytikjena), 13 μL cell culture media was removed. To all columns, 7.5 μL lysis buffer was added, and an additional 7.5 μL of lysis buffer was added to column 1(top half, negative control). The plate was incubated on a shaker at room temperature for 2 h. The plate was spun down at 600 g for 5 min. Custom 20×IRAK4 Antibody obtained from CISBIO Anti-IRAK4-d2 (acceptor Ab) and Anti-IRAK4-K (donor Ab) were diluted to 1× antibody mix Using a multichannel repeater, 4 μL of 1× antibody mix was added to each wellThe plate was spun down at 600 g for 5 min and incubated in the dark at room temperature for 18 h The next day (after 18 hrs), HTRF assay plate was spun down at 600 g for 5 min and read at 665/615 nm using a Envision plate reader.

LVL THP1 HTRF YMIN [%] | DC50 [nM] | Compound
93.2 | 1000 | C[C@H](C#N)Nc1cc(-n2ncc3cc(C#N)c(N)nc32)ncc1-n1cc([C@H]2CC[C@H](CCN3CCN(c4ccc([C@@]5(C)CCC(=O)NC5=O)cn4)CC3)CC2)nn1 (single isomer, unassigned) [P-265]
54.7 | 94.7 | C[C@H](C#N)Nc1cc(-n2ncc3cc(C#N)c(N)nc32)ncc1-n1cc([C@H]2CC[C@H](CCN3CCN(c4cnc([C@@]5(C)CCC(=O)NC5=O)cn4)CC3)CC2)nn1 (single isomer, unassigned) [P-267]
−0.2 | 2.1 | C[C@H](C#N)Nc1cc(-n2ncc3cc(C#N)c(N)nc32)ncc1-n1cc([C@H]2CC[C@H](CCN3CCN(c4cnc([C@@]5(C)CCC(=O)NC5=O)cn4)CC3)CC2)nn1 (single isomer, unassigned) [P-268]
6.0 | 11.4 | C[C@H](C#N)Nc1cc(-n2ncc3cc(C#N)cnc32)ncc1C(=O)N[C@H]1CC[C@H](CCN2CCN(c3ccc([C@@]4(C)CCC(=O)NC4=O)cn3)[C@@H](C)C2)CC1 (single isomer, unassigned) [P-276]
47.7 | 107 | C[C@H](C#N)Nc1cc(-n2ncc3cc(C#N)cnc32)ncc1-n1cc([C@H]2CC[C@](O)(CCN3CCN(c4ccc([C@@]5(C)CCC(=O)NC5=O)nc4)CC3)CC2)nn1 (single isomer, unassigned) [P-280]
24.0 | 106 | C[C@H](C#N)Nc1cc(-n2ncc3cc(C#N)cnc32)ncc1-n1cc([C@H]2CC[C@H](CCN3C[C@@H]4CN(c5ccc([C@@]6(C)CCC(=O)NC6=O)cc5)C[C@@H]4C3)CC2)nn1 (single isomer, unassigned) [P-281]
1.0 | 3.4 | C[C@H](C#N)Nc1cc(-n2ncc3cc(C#N)cnc32)ncc1-n1cc([C@H]2CC[C@H](CCN3CC[C@H](c4ccc([C@@]5(C)CCC(=O)NC5=O)cc4)C[C@H]3C)CC2)nn1 (single isomer, unassigned) [P-282]
6.6 | 8.5 | C[C@H](C#N)Nc1cc(-n2ncc3cc(C#N)cnc32)ncc1-n1cc([C@H]2CC[C@H](CCN3CC[C@H]4[C@@H]3CCN4c3ccc([C@@]4(C)CCC(=O)NC4=O)nc3)CC2)nn1 (single isomer, unassigned) [P-286]
51.0 | 1350 | C[C@H](C#N)Nc1cc(-n2ncc3cc(C#N)cnc32)ncc1-n1cc([C@H]2CC[C@H](CCN3CC[C@H]4[C@@H]3CCN4c3ccc([C@@]4(C)CCC(=O)NC4=O)nc3)CC2)nn1 (single isomer, unassigned) [P-287]
4.7 | 7.1 | C[C@H](C#N)Nc1cc(-n2ncc3cc(C#N)cnc32)ncc1-n1cc([C@H]2CC[C@H](CCN3CC[C@H]4[C@@H]3CCN4c3ccc([C@@]4(C)CCC(=O)NC4=O)nc3)CC2)nn1 (single isomer, unassigned) [P-288]
7.7 | 11.3 | C[C@H](C#N)Nc1cc(-n2ncc3cc(C#N)cnc32)ncc1-n1cc([C@H]2CC[C@H](CCN3CCN(c4ccc([C@@]5(C)CCC(=O)NC5=O)nc4)[C@@H](C)C3)CC2)nn1 (single isomer, unassigned) [P-289]
33.6 | 252 | C[C@H](C#N)Nc1cc(-n2ncc3cc(C#N)cnc32)ncc1-n1cc([C@H]2CC[C@H](CCN3CCN(c4ccc([C@@]5(C)CCC(=O)NC5=O)nc4)[C@@H](C)C3)CC2)nn1 (single isomer, unassigned) [P-290]
−4.4 | 57.7 | C[C@H](C#N)Nc1cc(-n2ncc3cc(C#N)cnc32)ncc1-n1cc([C@H]2CC[C@](O)(CCN3CCN(c4ccc([C@@]5(C)CCC(=O)NC5=O)cc4)[C@@H](C)C3)CC2)nn1 (single isomer, unassigned) [P-291]
7.2 | 32 | C[C@H](C#N)Nc1cc(-n2ncc3cc(C#N)cnc32)ncc1-n1cc([C@H]2CC[C@](O)(CCN3CCN(c4ccc([C@@]5(C)CCC(=O)NC5=O)cc4)CC3)CC2)nn1 (single isomer, unassigned) [P-292]
10.5 | 65.8 | C[C@H](C#N)Nc1cc(-n2ncc3cc(C#N)cnc32)ncc1-n1cc([C@H]2CC[C@](O)(CCN3CCN(c4ccc([C@@]5(C)CCC(=O)NC5=O)cn4)CC3)CC2)nn1 (single isomer, unassigned) [P-293]
76.0 | 1230 | C[C@H](C#N)Nc1cc(-n2ncc3cc(C#N)cnc32)ncc1-n1cc([C@H]2CC[C@](O)(CCN3CCN(c4ccc([C@@]5(C)CCC(=O)NC5=O)nc4)CC3)CC2)nn1 (single isomer, unassigned) [P-294]
39.8 | 350 | C[C@H](C#N)Nc1cc(-n2ncc3cc(C#N)cnc32)ncc1-n1cc([C@H]2CC[C@](O)(CCN3CCN(c4ccc([C@@]5(C)CCC(=O)NC5=O)nc4)CC3)CC2)nn1 (single isomer, unassigned) [P-295]
3.3 | 10.5 | COc1cc([C@@]2(C)CCC(=O)NC2=O)ccc1N1CCN(CC[C@H]2CC[C@H](c3cn(-c4cnc(-n5ncc6cc(C#N)c(N)nc65)cc4N[C@H](C)C#N)nn3)CC2)C[C@@H]1C (single isomer, unassigned) [P-302]
90.1 | 111 | COc1cc([C@@]2(C)CCC(=O)NC2=O)ccc1N1CCN(CC[C@H]2CC[C@H](c3cn(-c4cnc(-n5ncc6cc(C#N)c(N)nc65)cc4N[C@H](C)C#N)nn3)CC2)C[C@@H]1C (single isomer, unassigned) [P-303]
5.0 | 11.9 | COc1cc([C@@]2(C)CCC(=O)NC2=O)ccc1N1CCN(CC[C@H]2CC[C@H](c3cn(-c4cnc(-n5ncc6cc(C#N)c(N)nc65)cc4N[C@H](C)C#N)nn3)CC2)C[C@H]1C (single isomer, unassigned) [P-304]
84.3 | 0.2 | COc1cc([C@@]2(C)CCC(=O)NC2=O)ccc1N1CCN(CC[C@H]2CC[C@H](c3cn(-c4cnc(-n5ncc6cc(C#N)c(N)nc65)cc4N[C@H](C)C#N)nn3)CC2)C[C@H]1C (single isomer, unassigned) [P-305]
1.5 | 3.7 | C[C@H](C#N)Nc1cc(-n2ncc3cc(C#N)c(N)nc32)ncc1-n1cc([C@H]2CC[C@H](CCN3CCN(c4ccc([C@@]5(C)CCC(=O)NC5=O)nc4)CC3)CC2)nn1 (single isomer, unassigned) [P-306]
86.3 | 6.6 | C[C@H](C#N)Nc1cc(-n2ncc3cc(C#N)c(N)nc32)ncc1-n1cc([C@H]2CC[C@H](CCN3CCN(c4ccc([C@@]5(C)CCC(=O)NC5=O)nc4)CC3)CC2)nn1 (single isomer, unassigned) [P-307]
3.5 | 2.1 | C[C@H](C#N)Nc1cc(-n2ncc3cc(C#N)c(N)nc32)ncc1-n1cc([C@H]2CC[C@H](CCN3CCN(c4ccc([C@@]5(C)CCC(=O)NC5=O)nn4)CC3)CC2)nn1 (single isomer, unassigned) [P-308]

Compound | LVL THP1 HTRF YMIN [%] | DC50 [nM]
C[C@H](C#N)Nc1cc(-n2ncc3cc(C#N)cnc32)ncc1-n1cc([C@H]2CC[C@H](CCN3CC[C@@H](c4ccc([C@@]5(C)CCC(=O)NC5=O)cc4)C[C@@H]3C)CC2)nn1 (single isomer, unassigned) [P-283] | 5.2 | 5.7
